Measured values from patent US5663205A, “Pharmaceutical composition for use in glaucoma treatment” (Senju Pharmaceutical Co. Ltd., priority 1992, dated 1997).

How the values were obtained:
[1] = tested on: Hypertensive Intraocular Pressure Induced by Water Loading; experiment: Test Example 4: hypertensive intraocular pressure induced by water loading, white rabbits; assay type: in vivo; settings: 0.5% aqueous solution
Method: Intraocular Pressure Reducing Activity of 0.5% Aqueous Solution of Amosulalol Hydrochloride on Hypertensive Itraocular Pressure Induced by Water Loading White Rabbits
With 5 male white rabbits weighing about 2 kg used as test animals, 50 μl of 0.5% aqueous solution of amosulalol hydrochloride was applied to one eye of each rabbit, with 50 μl of physiological saline being given to the other, and drinking water, 60 ml/kg (37° C.) was loaded by means of an oral probe 30 min later. Intraocular pressure was measured for both eyes using PTG before instillation as well as before water loading and 0.5, 1, 2 and 4 hours after the same.
FIG. 6 is a graph showing the intraocular pressure reducing activity of 0.5% aqueous solution of amosulalol hydrochloride on hypertensive intraocular pressure induced by water loading in white rabbits with time (hour) after instillation taken as abscissa and intraocular pressure (mmHg) as ordinate; each value in mean ± S.E. (number of cases is […]).

[2] = tested on: cornea; experiment: Test Example 7 (2)(d): observation on fluorescein-dyed spots of the cornea; assay type: in vivo, Japanese white rabbits; settings: 1% and 0.5% ophthalmic solutions, 28 days
Method: (2) Ocular local toxicity test in rabbits of 1.0% and 0.5% ophthalmic solutions of amosulalol hydrochloride by consecutive instillation for 28 days: With 15 male Japanese white rabbits divided into 3 groups each consisting of 5 rabbits, 1.0% and 0.5% ophthalmic solutions of amosulalol hydrochloride as well as physiological saline as a control were applied in one drop (0.05 ml) per time to the right eye of each rabbit alone, four times a day at a regular interval of 2.5 hours, for 28 days consecutively with the left eye being left untreated. (d) Observation on fluorescein-dyed spots of the cornea: Before instillation of 1.0% and 0.5% ophthalmic solutions of amosulalol hydrochloride as well as on the day (Day 1) of initiating the instillation and on the 2nd, 4th, 7th, 14th, 21st, 28th days after initiating the instillation but each time after completion of such instillation, and on the morning of the last instillation (29th day), 10 μl of 0.1% aqueous fluorescein solution was applied topically to the eyes of each test animal, and observation was performed on the abrasion of the corneal epithelial cells with a photo-slit lamp.

[3] = tested on: corneal epithelial and endothelial cells; experiment: Test Example 7 (2)(e): scanning electron microscope evaluation of corneal epithelial and endothelial cells; assay type: in vivo, Japanese white rabbits; settings: 1% and 0.5% ophthalmic solutions, 28 days
Method: (2) Ocular local toxicity test in rabbits of 1.0% and 0.5% ophthalmic solutions of amosulalol hydrochloride by consecutive instillation for 28 days: With 15 male Japanese white rabbits divided into 3 groups each consisting of 5 rabbits, 1.0% and 0.5% ophthalmic solutions of amosulalol hydrochloride as well as physiological saline as a control were applied in one drop (0.05 ml) per time to the right eye of each rabbit alone, four times a day at a regular interval of 2.5 hours, for 28 days consecutively with the left eye being left untreated. (e) Evaluation with a scanning electron microscope of corneal epithelial and endothelial cells; After completion of the instillation of 1.0% and 0.5% ophthalmic solutions of amosulalol hydrochloride, morphological observation was done on corneal epithelial and endothelial cells in 3 eyes each of the two groups.

[4] = tested on: eyeball; experiment: Test Example 7 (2)(f): optical microscope evaluation of a sagittal section of the eyeball; assay type: in vivo, Japanese white rabbits; settings: 1% and 0.5% ophthalmic solutions, 28 days
Method: (2) Ocular local toxicity test in rabbits of 1.0% and 0.5% ophthalmic solutions of amosulalol hydrochloride by consecutive instillation for 28 days:
With 15 male Japanese white rabbits divided into 3 groups each consisting of 5 rabbits, 1.0% and 0.5% ophthalmic solutions of amosulalol hydrochloride as well as physiological saline as a control were applied in one drop (0.05 ml) per time to the right eye of each rabbit alone, four times a day at a regular interval of 2.5 hours, for 28 days consecutively with the left eye being left untreated.
(f) Evaluation with an optical microscope of a sagittal section of the eyeball;
After completion of the instillation of 1.0% and 0.5% ophthalmic solutions of amosulalol hydrochloride, specimens for optical microscopy were prepared each having a sagittal section of the eyeball from 2 eyes each of the two groups to conduct microscopic examination of the eyelid, conjunctiva, cornea, anterior segment, iris, crystalline lens vitreous body, retinochoroid membrane, screla and optic nerve.

Compound: COc1ccccc1OCCNCC(O)c1ccc(C)c(S(N)(=O)=O)c1.Cl (centres unmarked) [amosulalol hydrochloride, 5-[1-hydroxy-2-[2-(2-methoxyphenoxy)ethylamino]ethyl]-2-methylbenzenesulfonamide hydrochloride]
- increase in intraocular pressure after water loading ([1]; 30 min after water loading, physiological saline 8.7 mmHg): 3.4 mmHg
- effect on increase in intraocular pressure compared with physiological saline ([1]; water loading): significantly reduced the increase in intraocular pressure
- observation of fluorescein-dyed spots in the cornea [2]: no abnormalities
- scanning electron microscope evaluation of corneal epithelial and endothelial cells [3]: no abnormalities
- optical microscope evaluation of a sagittal section of the eyeball [4]: no abnormalities
